Experimental data: article PMC5418359, “Topical Ophthalmic Formulation of Trichostatin A and SurR9-C84A for Quick Recovery Post-alkali Burn of Corneal Haze” (Frontiers in Pharmacology, 2017)

Tests used:
[1] = tested on: rat eyes post-alkali burn
[2] = tested on: rat corneal tissues
[3] = Blood analysis; assay type: in vivo; set-up: HCT / MCH / WBC / RBC / HGB / MCHC: unit not given here; settings: rat blood
Method: The analysis of blood samples was performed directly using the ABX Micros ES 60 (Horiba Medicals). The parameters analyzed included the number of red blood cells (RBC’s), white blood cells (WBC’s), platelets and hemoglobin content. Briefly, 20 μL of the blood sample was acquired in the instrument and the readings were recorded.

[4] = tested on: cornea; assay: Mean opacity and mean permeability measurements, rat alkali burn model; assay type: in vivo
Method: The mean in vivo scores was determined using the mean opacity measurements. The rat eyes were excised carefully and carried to the laboratory in HBSS supplemented with penicillin/streptomycin. The measurement of mean opacity was carried out using an opacitometer which measures the transmission of light through the center of each mounted cornea. The mean permeability score was determined by adding a fluorescent (rhodamine solution) on the anterior side of the holder and the corneas were incubated in a horizontal position for 90 min at 32°C. The medium in the posterior chamber was removed and added to 96 well plates and the OD at 490 nm was read. The readings obtained at OD490 were used to determine the permeability of each treatment with respect to the change in the untreated corneas.

[5] = tested on: conjunctival layer and corneal matrix; assay: H&E histology of corneal segments, rat alkali burn model; assay type: in vivo; settings: 1 M NaOH 1 min, topical treatment 40 min
Method: After the completion of the study, all tissues that required to be examined (eyes, brain, kidneys, liver, spleen, heart and lungs) were isolated. The cornea was carefully separated from the eye without damaging it and washed using phosphate buffer saline (PBS). Tissues were fixed using 4% paraformaldehyde (PF) overnight at 4°C and then washed in PBS. The tissue segments were dehydrated in graded ethanol, embedded in paraffin and 5–7 μm thick sections were cut using a microtome. Sections were collected on poly-lysine coated slides using the Leica cryostat and were fixed immediately in ice-cold acetone. All the sections were stained for haematoxylin–eosin (H&E) for critical analysis.

[6] = tested on: rat corneal lysates; settings: post-NaOH insult
[7] = tested on: corneal lysate; assay: Multianalyte ELISA of inflammatory cytokines in corneal lysate; assay type: in vivo, rat
Method: The cytokine profiling was performed using the Rat Inflammatory Cytokines & Chemokines Multi-Analyte ELISArray Kit (QIAGEN, USA). Briefly, serial dilutions of the Antigen Standard and the experimental samples were prepared. 50 μL of Assay Buffer was added to each well of the 8-well ELISA strips. Fifty microliters samples and/or standards were added to the appropriate wells of the ELISA strips and incubated for 2 h at room temperature. The ELISA strips were further washed using 350 μL 1 × Washing Buffer thrice. Hundred microliters of Detection Antibody solution was added to the ELISA strips and incubated for 1 h at room temperature. ELISA wells were washed as mentioned above. Hundred microliters of the Avidin–HRP solution was added to all wells and incubated for 30 min at room temperature. ELISA wells were washed as mentioned above. Hundred microliters of Development Solution was added to each well and incubated for 15 min at room temperature in the dark. Hundred microliters of Stop Solution was added to each well. The color changed from blue to yellow. The absorbance at 450 nm was measured within 30 min of stopping the reaction. The estimation of pg/mL of cytokines was performed using the values obtained from antigen standards and a graph was plotted for the cytokine expression with the effect of treatments.

[8] = tested on: expression of survivin, TGF-beta-1, alpha-SMA and collagen IV in alkali burnt cornea; assay: Ex vivo RT-PCR dose ranging in alkali burnt rat eyes; settings: 1 M NaOH 1 min, treatment 40 min
Method: This procedure was carried out using a previously published protocol ([Lin et al., 2016]). Rat eyes were harvested from humanely killed rats and washed with HBSS. Rat eyes were further incubated with 1 M NaOH for 1 min and then treated with TSA ([…]), SurR9-C84A (0.5, 1.2, and 2.5 mg/kg), pSur/As-Sur ([…]) and empty plasmid (200, 400, and 800 μg/kg) for 40 min. Untreated eyes were maintained as controls. After treatment period, eyes were washed with PBS and total RNA was extracted using the TRIzol® reagent (cat# 15596-026, Thermo Fisher Scientific, Waltham, MA, USA), and complementary DNA (cDNA) was synthesized from RNA using the RevertAid H Minus First Strand cDNA Synthesis Kit (cat# K1631, Thermo Fisher Scientific). Expression of survivin, TGF-beta-1, alpha-SMA and collagen IV was determined by polymerase chain reaction (PCR).

[9] = 1 M NaOH 1 min, topical treatment 40 min

Q: With “SurR9-C84A: dominant negative survivin protein (survivin mutant)” as the substance, how does the “Collagen type IV gene expression, qRT-PCR” value [1] read?
A: efficiently downregulated

Q: And the “Fibronectin-1 gene expression, qRT-PCR” value [1]?
A: significantly enhanced

Q: What about the “IL-1 beta gene expression, qRT-PCR” value [1] of the same substance?
A: increase

Q: What about the “MMP-2 gene expression, qRT-PCR” value [1] of the same substance?
A: downregulating

Q: And the “TGF-beta-1 gene expression, qRT-PCR” value [1]?
A: further increase

Q: What about the “alpha-SMA gene expression, qRT-PCR” value [1] of the same substance?
A: significant decrease

Q: And the “survivin gene expression, qRT-PCR” value [1]?
A: significantly increased

Q: And the “alpha-SMA expression, immunofluorescence” value ([2]; confocal microscopy)?
A: substantial decrease

Q: And the “survivin expression, immunofluorescence” value ([2]; confocal microscopy)?
A: increase

Q: And the “clathrin (conjunctival layer) and claudin (corneal layer) expressions, immunofluorescence” value ([2]; post-NaOH insult)?
A: more effective than TSA alone

Q: What about the HCT [3] of the same substance?
A: increased the HCT count to normal range

Q: What about the HGB [3] of the same substance?
A: 17.1 ± 1.11

Q: And the MCH [3]?
A: reduced to normal range

Q: What about the MCHC [3] of the same substance?
A: 36.61 ± 1.57

Q: And the PLT [3]?
A: increased

Q: And the RBC [3]?
A: 8.35 ± 0.99

Q: And the WBC [3]?
A: 1.3 ± 3.18

Q: And the MCV ([3]; in fL (unit assumed))?
A: 55.66 ± 1.86

Q: What about the HCT ([3]; listed as NaOH–SurR9-C84A) of the same substance?
A: 46.85 ± 4.14

Q: And the MCH ([3]; listed as NaOH–SurR9-C84A)?
A: 20.36 ± 1.42

Q: And the PLT ([3]; listed as NaOH–SurR9-C84A)?
A: 547.16 ± 130

Q: And the “Mean in vitro score” value [4, 9]?
A: 0.0^∗

Q: And the Mean opacity measurement [4, 9]?
A: 0.0^∗

Q: And the Predicted irritation potential ([4]; rat, in vivo)?
A: No irritation

Q: What about the “corneal tissue integrity (conjunctival layer, corneal matrix), H&E” value [5] of the same substance?
A: recovery of the conjunctival layer

Q: And the “downregulation of alpha-SMA, western blot” value [6]?
A: 6.75 fold

Q: And the “enhancement of Fibronectin-1 expression, western blot” value [6]?
A: 1.97 fold

Q: And the “increase in TGF-beta-1 expression, western blot” value [6]?
A: 2.4 fold

Q: What about the “increase in survivin expression, western blot” value [6] of the same substance?
A: 7.7 fold

Q: What about the “IL-1 alpha expression, ELISA” value [7] of the same substance?
A: significantly increase

Q: And the “IL-1 beta expression, ELISA” value [7]?
A: further increase

Q: And the “IL-2 expression, ELISA” value [7]?
A: significantly increased

Q: And the “IL-4 expression, ELISA” value [7]?
A: increase

Q: What about the “most effective dosage in inhibiting expression of survivin, alpha-SMA, TGF-beta-1 and collagen IV” value [8] of the same substance?
A: 1.2 mg/kg
